{
  "source": "patent US20210207161A1",
  "about": "“PLANTS CONTAINING ELITE EVENT EE-GM5 AND METHODS AND KITS FOR IDENTIFYING SUCH EVENT IN BIOLOGICAL SAMPLES, AND TREATMENT THEREOF” (priority 2018, published 2021)",
  "key": {"[1]": {"tested_on": "soybean plants containing event EE-GM5", "experiment": "HPPD inhibitor herbicide tolerance field trials (maximum phytotoxicity)", "format": "in vivo, soybean (Glycine max)", "conditions": "for average maximum phytotoxicity value: several field trials across 2 years; for tolerance of plants with EE-GM5 to the herbicide: field, different locations over 2 years", "excerpt": "Numbers in ( ) below a treatment give the number of trials included in the bar, the number on top of each bar gives the average maximum phytotoxicity value for that treatment. Treatments applied were: IFT=isoxaflutole, MST=mesotrione, PE=pre-emergence, P0=post-emergence (at V2-V3 stage, with adjuvants crop oil concentrate and ammonium sulfate added to increase herbicide activity). Rates shown are in gram active ingredient/hectare (4× dose in pre-emergence, 2× dose in post-emergence).\nTolerance of plants comprising EE-GM5 to HPPD inhibitor herbicides was tested at different locations in the field over 2 years. […] All post-emergence treatments were at the V2-V3 stage, with adjuvants crop oil concentrate and ammonium sulfate added to increase herbicide activity.\nThe “maximum phytotoxicity” as used herein is the highest phytotoxicity rating recorded at any observation during the duration of a trial (with 3 to 4 observations per trial). In existing weed control applications, a normal (lx) dose for isoxaflutole (IFT) in pre- or post-emergence application and for MST in post-emergence application is 105 gr/ha, and a normal (lx) dose for mesotrione in pre-emergence application is 210 gr/ha.\nAlso, in several field trials across 2 years, soybean plants with event EE-GM5 had good tolerance towards experimental HPPD inhibitor compound 2-methyl-N-(5-methyl-1,3,4-oxadiazol-2-yl)-3-(methylsulfonyl)-4-(trifluoromethyl)benzamide (U.S. Pat. No. 9,101,141) when applied pre-emergence at 400 gr ai/ha or post-emergence at 200 gr ai/ha, respectively (the average maximum phytotoxicity value for each treatment was below 20%). […] All post-emergence treatments were at the V2-V3 stage, with adjuvants crop oil concentrate and ammonium sulfate added to increase herbicide activity.\nAlso, plants with EE-GM5 when treated post-emergent (V2-V3) with topramezone at 36 g ai/ha (+COC and AMS) in 2 field trials in the US gave an average maximum phytotoxicity of 11%, showing EE-GM5 also confers good tolerance to this HPPD inhibitor."}, "[2]": {"tested_on": "soybean plants containing event EE-GM5", "experiment": "HPPD inhibitor herbicide tolerance field trials (maximum phytotoxicity)", "format": "in vivo, soybean (Glycine max)", "conditions": "3rd year"}, "[3]": {"conditions": "applied post-emergence (V2-V3 stage, with adjuvants)"}},
  "data": [
    {"smiles": "CSc1c(C(F)(F)F)ccc(C(=O)Nc2nnnn2C)c1Cl", "note": "[2-chloro-3-(methylsulfanyl)-N-(1-methyl-1H-tetrazol-5-yl)-4-(trifluoromethyl)benzamide]", "values": [
      {"measurement": "average maximum phytotoxicity", "setting": "[1]; post-emergence (V2-V3) at 100-150 gr ai/ha, with crop oil concentrate and ammonium sulfate", "result": 20, "unit": "%"},
      {"measurement": "average maximum phytotoxicity", "setting": "[2]; post-emergence at 150 g/ha, 3 field trial locations, Thorne background", "result": 13.3, "unit": "%"}
    ]},
    {"smiles": "Cc1nnc(NC(=O)c2ccc(C(F)(F)F)c(S(C)(=O)=O)c2C)o1", "note": "[2-methyl-N-(5-methyl-1,3,4-oxadiazol-2-yl)-3-(methylsulfonyl)-4-(trifluoromethyl)benzamide]", "values": [
      {"measurement": "average maximum phytotoxicity value", "setting": "[1]; post-emergence (V2-V3) at 200 gr ai/ha, with crop oil concentrate and ammonium sulfate", "result": "below 20%"},
      {"measurement": "average maximum phytotoxicity value", "setting": "[1]; pre-emergence at 400 gr ai/ha", "result": "below 20%"}
    ]},
    {"smiles": "CS(=O)(=O)c1cc(C(F)(F)F)ccc1C(=O)c1cnoc1C1CC1", "note": "[isoxaflutole, (5-cyclopropyl-4-isoxazolyl)[2-(methylsulfonyl)-4-(trifluoromethyl)phenyl]methanone]", "values": [
      {"measurement": "tolerance of plants with EE-GM5 to the herbicide", "setting": "[1]; [3]", "result": "commercially relevant tolerance"},
      {"measurement": "tolerance of plants with EE-GM5 to the herbicide", "setting": "[1]; applied pre-emergence", "result": "commercially relevant tolerance"},
      {"measurement": "average maximum phytotoxicity", "setting": "[2]; post-emergence (V2-V3 stage), 210 h/ha, 4 locations, EE-GM5 in Thorne background", "result": 10.9, "unit": "%"},
      {"measurement": "maximum phytotoxicity", "setting": "[2]; pre-emergence, 410 g/ha, one field trial location, EE-GM5 in Thorne background", "result": 9, "unit": "%"}
    ]},
    {"smiles": "CS(=O)(=O)c1ccc(C(=O)C2C(=O)CCCC2=O)c([N+](=O)[O-])c1", "note": "[mesotrione, 2-[4-(Methylsulfonyl)-2-nitrobenzoyl]cyclohexane-1,3-dione]", "values": [
      {"measurement": "tolerance of plants with EE-GM5 to the herbicide", "setting": "[1]; [3]", "result": "commercially relevant tolerance"},
      {"measurement": "tolerance of plants with EE-GM5 to the herbicide", "setting": "[1]; applied pre-emergence", "result": "commercially relevant tolerance"}
    ]},
    {"smiles": "Cc1c(C(=O)c2cnn(C)c2O)ccc(S(C)(=O)=O)c1C1=NOCC1", "note": "[topramezone, [3-(4,5-dihydro-3-isoxazolyl)-2-methyl-4-(methylsulfonyl)phenyl](5-hydroxy-1-methyl-1H-pyrazol-4-yl)methanone]", "values": [
      {"measurement": "average maximum phytotoxicity", "setting": "[1]; post-emergent (V2-V3) at 36 g ai/ha (+COC and AMS), 2 field trials in the US", "result": 11, "unit": "%"}
    ]}
  ]
}
